Results from PMC12081876, “Identification of PTGR2 inhibitors as a new therapeutic strategy for diabetes and obesity” (EMBO Molecular Medicine, 2025).

Molecular target: T1, Myc-DDK-mPPARγ (Mus musculus, UniProt P37238)
T1 construct: host or cells: HEK293T
Assay: Reciprocal co-immunoprecipitation in HEK293T cells, wild-type mPPARγ
Format: binding, murine
Conditions: 15-keto-PGE2 treated
Method: HEK293T cells were transfected with murin PPARγ (mPPARγ) and mPPARγ C313A plasmids for immunoprecipitation, which are Myc-DDK-tagged (OriGene, USA). […] According to the manufacturer’s protocol, proteins were immunoprecipitated using Anti-FLAG® M2 Magnetic Beads (2.5 mg/ml; cat. no. F1804, Sigma-Aldrich). Subsequently, the eluted proteins were separated by SDS-PAGE and subjected to immunoblot analysis. Following separation by SDS-PAGE, proteins were stained with Coomassie blue and SYPRO-Ruby stain. The protein bands of interest were cut out for in-gel tryptic digestion followed by C18 Zip-Tip clean-up (Millipore, USA). For proteomic shotgun identifications, nanoLC-nanoESI-MS/MS analysis was performed on a nanoAcquity system (Waters, USA) connected to the LTQ Orbitrap Velos hybrid MS (Thermo Electron, USA) equipped with a PicoView nanospray interface (New Objective, USA). Samples were loaded onto a C18 BEH column (75 μm × 25 cm length, 130 Å, 1.7 μm particle size) (Waters, USA) and separated by a segmented gradient form in 60 min from 5% to 40% acetonitrile (with 0.1% formic acid) at a constant flow rate of 300 nL/min with a column temperature of 35 °C. The mass spectrometer was operated in the data-dependent mode. […] Protein identification and modification were analyzed using Mascot Daemon (Matrix Science Inc., Chicago). […]

T1 sequence (P37238 whole entry): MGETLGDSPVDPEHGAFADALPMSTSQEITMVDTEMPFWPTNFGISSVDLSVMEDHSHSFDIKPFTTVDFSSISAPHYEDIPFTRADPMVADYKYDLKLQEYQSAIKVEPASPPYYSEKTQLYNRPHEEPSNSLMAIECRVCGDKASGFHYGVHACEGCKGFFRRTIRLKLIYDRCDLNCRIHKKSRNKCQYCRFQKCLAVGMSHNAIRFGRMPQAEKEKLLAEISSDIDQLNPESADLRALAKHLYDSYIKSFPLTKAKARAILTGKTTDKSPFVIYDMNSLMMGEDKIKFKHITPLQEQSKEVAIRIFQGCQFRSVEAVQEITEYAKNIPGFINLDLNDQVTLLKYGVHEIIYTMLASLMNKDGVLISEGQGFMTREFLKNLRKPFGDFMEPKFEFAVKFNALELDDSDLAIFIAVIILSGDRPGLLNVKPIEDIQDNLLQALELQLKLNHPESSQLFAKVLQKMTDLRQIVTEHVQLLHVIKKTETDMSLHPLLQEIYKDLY

For `CCCCCC(=O)/C=C/[C@H]1[C@H](O)CC(=O)[C@@H]1C/C=C\CCCC(=O)O` [15-keto-PGE2, 15-keto-prostaglandin E2], the “co-immunoprecipitation with 15-keto-PGE2-cysteine antibody, wild-type mPPARγ” value was “A single band of PPARγ (57 kDa) was detected”.
